Experimental data published in patent US5783568A, “Methods for treating cancer and other cell proliferative diseases” (Sugen, Inc., priority 1994, dated 1998).
Entries after “also recorded” stand apart in the source; their conditions may differ.

How the values were obtained:
FGFR2 (bek) = assay: Cross-linking (BS^3) of FGF receptors in mutant CHO-pgsD-677 cells, receptor dimerization; type: cell-based, human; conditions: 0.1 nM aFGF, with or without 50 nM heparin
Protocol: Parental (lanes 1-4) and mutant CHO cells (lanes 5-8) were incubated with either 50 nM heparin (lanes 2 and 6), 0.1 nM aFGF (lanes 3 and 7), or both (lanes 4 and 8), for 1 hour at 4° C. Cells were then treated with the covalent cross-linking agent BS^3 for […] at room temperature, solubilized and immunoprecipitated with anti-FGFR2 antibodies. The samples were analyzed by a gradient SDS gel (6-8%), transferred to nitrocellulose membranes and probed with anti-FGFR2 antibodies. M--FGFR monomers; D--FGFR dimers.
Cells grown in fibronectin-coated dishes were starved overnight in F-12 medium containing 0.5% FBS. Cells were then washed with ice-cold binding medium (F-12 medium containing 20 mM Hepes (pH 7.5) and 0.1% BSA), and incubated for 1 hour at 4° C. with either aFGF (0.1 nM), heparin (50 nM), or both. The cells were then washed twice with cold PBS and incubated with 1 mM BS^3 in PBS for 20 minutes at room temperature. The cross-linking reaction was quenched by the addition of 50 mM Tris-HCl and 100 mM glycine for 10 min at room temperature. […]
Full-length FGFR2 was transfected into two CHO cell lines; wild-type CHO-K1, and the mutant CHO-pgsD-677, which is defective in heparin sulfate expression at its cell-surface (Esko, 1991). […] Cells were then lysed, and immunoprecipitated FGFR2 was analyzed by SDS-PAGE followed by immunoblotting with anti-FGFR2 antibodies.

[1] = system: sFGFR (soluble extracellular domain of FGFR2); assay: Covalent cross-linking (DSS) of sFGFR, dimerization; type: biochemical, human
Protocol: Purified sFGFR was incubated with aFGF in the presence (lanes 2, 4, 6 and 8) or absence (lanes 1, 3, 5 and 7) of heparin for 1 hour at room temperature. The covalent cross-linker, DSS, was then added and incubation was continued for a further 45 minutes. Samples were then boiled in Laemmli sample buffer, separated by SDS-PAGE (6-12% gradient gel), and transferred to a nitro-cellulose membrane. The protein bands were visualized by blotting with anti-FGFR2 (lanes 1-4) or anti-aFGF antibodies (lanes 5-8), followed by ^125 I-protein A. I-sFGFR monomers; II-aFGF/sFGFR complex (monomeric); III-aFGF/sFGFR complex (dimeric).
A plasmid encoding the extracellular, ligand-binding domain of human FGFR2 (residues 1-355) was constructed using standard oligonucleotide-directed mutagenesis (Amersham) to introduce a translational termination codon immediately prior to the beginning of the single transmembrane domain of the receptor (Dionne et al., 1990). BamHI and SacII restriction sites were introduced 3' to the new termination codon. An XbaI-SacII fragment was isolated from the replicative form (RF) of this M13 mutagenesis product, filled in using T4 DNA polymerase (Boehringer-Mannheim) and inserted into the SmaI site of the expression vector pCVN (Dionne et al., 1990). This expression vector, which contains both the neomycin resistance and the dihydrofolate reductase genes for selection and amplification, was transfected into CHO cells following published procedures. Wigler et al., 1979, Cell 16:777-785.
Purified sFGFR (0.2 μM) was incubated with aFGF (0.6 μM) in the presence or absence of heparin. […] Cross-linking studies of aFGF alone were performed using the same procedure, except that samples were analyzed by 15% SDS-PAGE and detected by staining with Coomassie Brilliant Blue.
If aFGF activates its receptor in a similar manner, aFGF binding to sFGFR would therefore be expected to promote its dimerization. […] Samples were then analyzed by SDS-PAGE, followed by immunoblotting with either anti-FGFR2 or anti-aFGF antibodies. […]

FGFR1 (flg) = FGFR1 (flg) expressed in the two CHO cell lines; type: cell-based
[2] = system: sFGFR (soluble extracellular domain of FGFR2); assay: Isothermal titration calorimetry, heparin binding to sFGFR; design: species or system human; conditions: ITC
[3] = system: FGFR1 extracellular domain; conditions: Kan et al., 1993; cited from earlier work

Row | Substance | receptor dimerization in mutant CHO-pgsD-677 cells (FGFR2 (bek)) | sFGFR dimerization, aFGF alone ([1]; no heparin) | dimerization and autophosphorylation with FGFR1 (flg) (FGFR1 (flg)) | sFGFR dimerization, heparin plus aFGF ([1]; both heparin and aFGF) | effect on mobility of sFGFR, heparin alone ([1]; no aFGF) | heparin binding to sFGFR [2] | binding to the extracellular domain of FGFR1 [3]
1 | aFGF: aFGF was expressed in E. coli and purified by binding to a heparin-sepharose column | could only induce the dimerization of FGFR2 when exogenous heparin was added; also recorded: can only induce FGFR dimerization in the presence of heparin | No cross-linked dimeric form of sFGFR could be detected; also recorded: they were not detected in the presence of aFGF alone; also recorded: did not, however, result in the formation of dimers of the receptor extracellular domain | Identical results |  |  |  | 
2 | heparin |  |  |  | cross-linked dimers of sFGFR are formed under these conditions; also recorded: the binding of aFGF to sFGFR did lead to its dimerization | did not affect the mobility of sFGFR | failed to detect an interaction with significant affinity; also recorded: could not be detected; also recorded: does not itself interact with sFGFR | binds to the extracellular domain of FGFR1
